pIC50, pKi: −log10 of the molar value. Values joined by “and” are separate entries in the source; they are usually repeats but may differ in a detail not shown here. Identical values can stand only once.
Columns and labels:
[1] = kinact was determined; NTD = Not time dependent; format: ADME
[2] = Half-life period of the compound; NTD = Not time dependent; format: ADME
Aromatase [3] = target: T1, Aromatase (Homo sapiens, UniProt P11511); test: Inhibition of cytochrome P450 19A1
T1 sequence (P11511 whole entry): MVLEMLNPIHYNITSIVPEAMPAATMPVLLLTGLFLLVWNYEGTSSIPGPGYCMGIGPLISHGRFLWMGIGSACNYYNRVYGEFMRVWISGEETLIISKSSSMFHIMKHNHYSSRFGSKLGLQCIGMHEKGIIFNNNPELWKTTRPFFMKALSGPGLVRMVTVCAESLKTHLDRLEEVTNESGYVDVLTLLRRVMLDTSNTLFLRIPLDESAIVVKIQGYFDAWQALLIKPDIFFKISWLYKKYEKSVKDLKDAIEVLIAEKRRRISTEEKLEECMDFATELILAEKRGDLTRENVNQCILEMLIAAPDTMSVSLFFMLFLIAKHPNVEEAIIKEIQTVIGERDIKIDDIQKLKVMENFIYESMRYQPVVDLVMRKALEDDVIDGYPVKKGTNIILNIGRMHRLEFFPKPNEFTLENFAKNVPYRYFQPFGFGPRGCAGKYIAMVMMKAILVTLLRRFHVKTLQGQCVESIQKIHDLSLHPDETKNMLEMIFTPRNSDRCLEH

[4] = kinact was determined.; format: ADME
Aromatase [5] = target: T1, Aromatase; test: Inhibition constant for human placental cytochrome P450 19A1
Aromatase [6] = target: T1, Aromatase; test: Inhibition of Cytochrome P450 19A1
Aromatase [7] = target: T1, Aromatase; test: Inhibition constant for human placental Cytochrome P450 19A1
Aromatase [8] = target: T1, Aromatase; test: Percent cytochrome P450 19A1 activity remaining after pretreatment with 0.5 uM androstenedione (t=0 control)
Aromatase [9] = target: T1, Aromatase; test: Percent cytochrome P450 19A1 activity remaining after 10 minute pretreatment with 0.5 uM androstenedione
Aromatase [10] = target: T1, Aromatase; test: Percent cytochrome P450 19A1 activity remaining after 5 minute pretreatment with 0.5 uM androstenedione
Aromatase [11] = target: T1, Aromatase; test: Percent cytochrome P450 19A1 activity remaining after pretreatment with 1 uM androstenedione (t=0 control)
Aromatase [12] = target: T1, Aromatase; test: Percent cytochrome P450 19A1 activity remaining after 10 minute pretreatment with 1 uM androstenedione
Aromatase [13] = target: T1, Aromatase; test: Percent cytochrome P450 19A1 activity remaining after 5 minute pretreatment with 1 uM androstenedione
Aromatase [14] = target: T1, Aromatase; test: Percent cytochrome P450 19A1 activity remaining after 10 minute pretreatment with 0.5 mM beta-mercaptoethanol
Aromatase [15] = target: T1, Aromatase; test: Percent cytochrome P450 19A1 activity remaining after 5 minute pretreatment with 10 mM beta-mercaptoethanol

| Compound | pIC50 (Aromatase [3]) | K inact [4] | pKi (Aromatase [5]) | also measured |
| --- | --- | --- | --- | --- |
| CSC1=C2CCC3C(CC[C@]4(C)C(=O)CCC34)[C@@]2(C)CCC1=O (stereo partly specified) | 5.36 | – | – | K inact [1]: Not time-dependent; T1/2 [2]: Not time-dependent |
| C[C@]12CCC(=O)C(S)=C1CCC1C2=CC[C@]2(C)C(=O)CCC12 (stereo partly specified) | 5.42 | 3.9 10e-3 s-1 | 7.14 | – |
| CSCSC1=C2CCC3C(CC[C@]4(C)C(=O)CCC34)[C@@]2(C)CCC1=O (stereo partly specified) | 5.92 | – | – | K inact [1]: Not time-dependent; T1/2 [2]: Not time-dependent |
| C[C@]12CCC(=O)C(SCCl)=C1CCC1C2=CC[C@]2(C)C(=O)CCC12 (stereo partly specified) | 6.07 | 4.8 10e-3 s-1 | 7.57 | – |
| C[C@]12CCC(=O)C(SCF)=C1CCC1C2CC[C@]2(C)C(=O)CCC12 (stereo partly specified) | – | 3.1 10e-3 s-1 | – | pIC50 (Aromatase [6]): 6.10; pKi (Aromatase [7]): 7.52 |
| C[C@]12CCC(=O)C(SCCl)=C1CCC1C2CC[C@]2(C)C(=O)CCC12 (stereo partly specified) | 6.03 | 3.8 10e-3 s-1 | 7.52 | Activity (Aromatase [8]): 49%; Activity (Aromatase [9]): 36.5% and 46%; Activity (Aromatase [10]): 70%; Activity (Aromatase [11]): 9.8%; Activity (Aromatase [12]): 10.2%; Activity (Aromatase [13]): 32% and 36.8%; Activity (Aromatase [14]): 59%; Activity (Aromatase [15]): 5% |
| C[C@]12CCC(=O)C(S)=C1CCC1C2CC[C@]2(C)C(=O)CCC12 (stereo partly specified) | – | – | – | pIC50 (Aromatase [6]): 5.46 |
| COCSC1=C2CCC3C(CC[C@]4(C)C(=O)CCC34)[C@@]2(C)CCC1=O (stereo partly specified) | 5.00 | Not time-dependent | – | – |
| C[C@]12CCC(=O)C(O)=C1CCC1C2=CC[C@]2(C)C(=O)CCC12 (stereo partly specified) | 6.46 | – | – | – |
| C[C@]12CCC(=O)C(O)=C1CC[C@@H]1[C@@H]2CC[C@]2(C)C(=O)CC[C@@H]12 [FORMESTANE] | 6.43 | 2.3 10e-3 s-1 | 7.57 | – |
| COCOC1=C2CCC3C(CC[C@]4(C)C(=O)CCC34)[C@@]2(C)CCC1=O (stereo partly specified) | 5.36 | Not time-dependent | – | – |
| C[C@]12CCC(=O)C(SCC#N)=C1CC[C@@H]1[C@@H]2CC[C@]2(C)C(=O)CC[C@@H]12 | – | 1.2 10e-3 s-1 | – | pIC50 (Aromatase [6]): 5.43; pKi (Aromatase [7]): 6.77 |
| C[C@]12CCC(=O)C(SC(F)F)=C1CC[C@@H]1[C@@H]2CC[C@]2(C)C(=O)CC[C@@H]12 | 5.57 | – | – | K inact [1]: Not time-dependent; T1/2 [2]: Not time-dependent |
